Numbering of substitutions follows the chain as printed. Where two headings read alike, the source gives them in different places.
Columns and labels:
[1] = target: SNAP-D2SR D80^2.50A (Homo sapiens, UniProt P14416, D80A); assay: functional cAMP assay, BRET biosensor; format: cell-based
Experimental: (§1) Flp-In-CHO cells stably coexpressing the CAMYEL biosensor and DRs were plated into white 96-well CulturPlates (Revvity) and grown overnight. The cells were equilibrated in Hank’s balanced salt solution (HBSS) at 37 °C (or 25 °C when indicated) before starting the experiment. The cells were costimulated with the agonists and 10 μM forskolin for the indicated time frames when the BRET readings were captured. Coelenterazine (Nanolight Technology, AZ) was added at a final concentration of 5 μM at least 3 min prior to measurement. […] Net BRET was determined by subtraction of the vehicle control coadded with 10 μM forskolin.
(§2) Dose–response curves were fitted using the following three-parameter equation: response=bottom+top−bottom/1+10^(logEC50−log[A]) 5 where top and bottom represent the maximal and minimal asymptote of the dose response curve, [A] is the molar concentration of the agonist, and EC50 is the molar concentration of the agonist required to give a response half-way between bottom and top.

[2] = target: T1, SNAP-D2SR S121^3.39A (Homo sapiens, UniProt P14416, S121A); assay: functional cAMP assay, BRET biosensor; format: cell-based
T1 sequence (P14416 1-414 isoform P14416-2 S121A): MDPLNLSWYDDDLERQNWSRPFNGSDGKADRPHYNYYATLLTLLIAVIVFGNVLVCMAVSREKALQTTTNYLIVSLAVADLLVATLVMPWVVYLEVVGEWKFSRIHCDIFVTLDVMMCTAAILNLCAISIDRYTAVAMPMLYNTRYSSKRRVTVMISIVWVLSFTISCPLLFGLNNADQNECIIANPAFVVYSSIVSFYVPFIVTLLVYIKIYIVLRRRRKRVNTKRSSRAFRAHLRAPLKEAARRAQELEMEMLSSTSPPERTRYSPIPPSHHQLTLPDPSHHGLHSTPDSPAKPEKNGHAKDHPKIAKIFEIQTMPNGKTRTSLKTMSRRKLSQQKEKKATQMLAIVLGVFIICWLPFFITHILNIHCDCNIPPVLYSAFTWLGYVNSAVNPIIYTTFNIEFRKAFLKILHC
Experimental: as §1, §2

[3] = target: SNAP-D2SR L94^2.64A (Homo sapiens, UniProt P14416, L94A); assay: functional cAMP assay, BRET biosensor; format: cell-based
Sequence of SNAP-D2SR L94^2.64A (P14416 1-414 isoform P14416-2 L94A): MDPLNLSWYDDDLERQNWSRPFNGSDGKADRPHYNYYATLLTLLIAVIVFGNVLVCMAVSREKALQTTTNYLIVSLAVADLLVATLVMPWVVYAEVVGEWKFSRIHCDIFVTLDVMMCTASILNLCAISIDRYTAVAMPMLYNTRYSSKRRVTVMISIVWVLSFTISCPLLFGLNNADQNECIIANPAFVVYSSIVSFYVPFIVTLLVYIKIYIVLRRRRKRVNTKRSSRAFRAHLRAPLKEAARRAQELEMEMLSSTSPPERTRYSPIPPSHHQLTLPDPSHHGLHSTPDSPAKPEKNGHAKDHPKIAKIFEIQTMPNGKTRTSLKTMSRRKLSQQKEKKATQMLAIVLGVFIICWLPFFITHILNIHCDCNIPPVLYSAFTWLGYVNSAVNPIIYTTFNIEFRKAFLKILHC
Experimental: (§3) Flp-In-CHO cells stably coexpressing the CAMYEL biosensor and DRs were plated into white 96-well CulturPlates (Revvity) and grown overnight. The cells were equilibrated in Hank’s balanced salt solution (HBSS) at 37 °C (or 25 °C when indicated) before starting the experiment. The cells were costimulated with the agonists and 10 μM forskolin for the indicated time frames when the BRET readings were captured. Coelenterazine (Nanolight Technology, AZ) was added at a final concentration of 5 μM at least 3 min prior to measurement. […] Net BRET was determined by subtraction of the vehicle control coadded with 10 μM forskolin. For phenoxybenzamine alkylation experiments, the cells were treated with 0.1, 0.3, or 1 μM phenoxybenzamine (Sigma-Aldrich) diluted in HBSS and equilibrated at 37 °C for 30 min prior to the commencement of the assay.
as §2

[4] = target: SNAP-D2SR V91^2.61A (Homo sapiens, UniProt P14416, V91A); assay: functional cAMP assay, BRET biosensor; format: cell-based
Sequence of SNAP-D2SR V91^2.61A (P14416 1-414 isoform P14416-2 V91A): as the sequence (P14416 1-414 isoform P14416-2 L94A) above, with V91A, A94L counted along it
Experimental: as §3, §2

[5] = target: SNAP-D2SR I73^2.43A (Homo sapiens, UniProt P14416, I73A); assay: cell membrane [3H]spiperone assay
Sequence of SNAP-D2SR I73^2.43A (P14416 1-414 isoform P14416-2 I73A): as the sequence (P14416 1-414 isoform P14416-2 L94A) above, with I73A, A94L counted along it
Experimental: (§4) Flp-In-CHO cells stably expressing the wild-type or mutant DRs were grown to 90% confluence in 175 cm^2 cell culture flasks. The cells were harvested in PBS containing 2 mM EDTA and centrifuged at 300g for 3 min. The resulting pellet was resuspended in ice-cold assay buffer (20 mM HEPES, 100 mM NaCl, 6 mM MgCl2, 1 mM EGTA, and 1 mM EDTA, pH 7.4), and the centrifugation step was repeated. The intact cell pellet was then resuspended in assay buffer and homogenized using a Polytron homogenizer. After centrifugation (1000g, 10 min), the pellet was discarded, and the supernatant was recentrifuged at 30,000g for 1 h at 4 °C using a Sorvall Evolution RC ultracentrifuge (Thermo Scientific). The resulting pellet was resuspended in assay buffer and stored in 250 μL aliquots at −80 °C. Membrane protein concentration was determined using a Pierce’s BCA protein assay kit (Thermo Fisher, Melbourne).
(§5) [^3H]­Spiperone binding experiments using cell membranes were conducted in a 200 μL reaction volume in assay buffer (20 mM HEPES, 100 mM NaCl, 6 mM MgCl2, 1 mM EGTA, and 1 mM EDTA, pH 7.4) containing 100 μM GppNHp and 0.1% ascorbic acid in 96-well plates. […] In all cases, nonspecific binding was determined in the presence of 10 μM haloperidol. […] Filter bound radioactivity was detected as a chemiluminescence after the addition of MicroScint-20 (Revvity) in a MicroBeta plate counter (Revvity). […]

[6] = target: T1, SNAP-D2SR S121^3.39A; assay: cell membrane [3H]spiperone assay
Experimental: as §4, §5

[7] = target: T2, SNAP-D2SR C118^3.36A (Homo sapiens, UniProt P14416, C118A); assay: cell membrane [3H]spiperone assay
T2 sequence (P14416 1-414 isoform P14416-2 C118A): T1 sequence (P14416 1-414 isoform P14416-2 S121A) with C118A, A121S
Experimental: as §4, §5

[8] = target: SNAP-D2SR WT (Homo sapiens, UniProt P14416); assay: functional cAMP assay, BRET biosensor; format: cell-based
Sequence of SNAP-D2SR WT (P14416 1-414 isoform P14416-2): as the sequence (P14416 1-414 isoform P14416-2 L94A) above, with A94L counted along it
Experimental: as §1, §2

[9] = target: SNAP-D2SR F353^6.44A (Homo sapiens, UniProt P14416, F382A); assay: functional cAMP assay, BRET biosensor; format: cell-based
Sequence of SNAP-D2SR F353^6.44A (P14416 1-414 isoform P14416-2 F353A): as the sequence (P14416 1-414 isoform P14416-2 L94A) above, with A94L, F353A counted along it
Experimental: as §1, §2

[10] = target: T3, SNAP-D2SR I128^3.46A (Homo sapiens, UniProt P14416, I128A); assay: functional cAMP assay, BRET biosensor; format: cell-based
T3 sequence (P14416 1-414 isoform P14416-2 I128A): T1 sequence (P14416 1-414 isoform P14416-2 S121A) with A121S, I128A
Experimental: as §1, §2

[11] = target: T4, D2R (Homo sapiens, UniProt P14416); assay: D2R internalization whole cell ELISA; format: cell-based
T4 construct: expressed in transfected cells; host or cells: CHO cells stably overexpressing GRK2, transient
T4 sequence (P14416 whole entry): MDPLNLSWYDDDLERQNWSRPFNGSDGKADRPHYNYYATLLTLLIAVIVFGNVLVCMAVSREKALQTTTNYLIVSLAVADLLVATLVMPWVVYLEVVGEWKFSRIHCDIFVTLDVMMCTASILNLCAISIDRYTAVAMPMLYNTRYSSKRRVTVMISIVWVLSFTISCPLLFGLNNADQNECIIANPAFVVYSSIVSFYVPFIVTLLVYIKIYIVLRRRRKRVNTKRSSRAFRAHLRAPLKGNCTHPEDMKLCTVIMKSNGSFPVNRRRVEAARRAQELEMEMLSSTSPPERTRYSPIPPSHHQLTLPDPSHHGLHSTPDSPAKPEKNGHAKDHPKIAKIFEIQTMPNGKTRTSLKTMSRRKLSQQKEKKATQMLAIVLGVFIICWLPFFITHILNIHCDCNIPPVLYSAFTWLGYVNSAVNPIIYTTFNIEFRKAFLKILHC

[12] = tested on: 6-OHDA contralateral turning model; conditions: with subeffective dose of L-DOPA; earlier report, reference number not given; cited from earlier work
[13] = read-out: D2 PAM2 KB (converted)

Sequence of SNAP-D2SR D80^2.50A (P14416 1-414 isoform P14416-2 D80A): as the sequence (P14416 1-414 isoform P14416-2 L94A) above, with D80A, A94L counted along it

## COc1cc(CO)c(F)cc1C(=O)n1ccc2c(F)cccc21 [D2 PAM2, [5-fluoro-4-(hydroxymethyl)-2-methoxyphenyl]-(4-fluoro-1H-indol-1-yl)methanone]
[1]
  D2 PAM2 log τ: –0.78 ± 0.25
  D2 PAM2 pKB: 4.82 ± 0.18
  D2 PAM2 τ: 0.17
[1]; with DA
  D2 PAM2 log αβ: 0.96 ± 0.25
  D2 PAM2 αβ: 9.0
[2]
  D2 PAM2 log τ: –1.18 ± 0.15
  D2 PAM2 pKB: 4.83 ± 0.11
  D2 PAM2 τ: 0.06
[2]; [13]
  Kb: 15 µM
[2]; with DA
  D2 PAM2 log αβ: 1.14 ± 0.06
  D2 PAM2 αβ: 14
[3]
  Kb: 12.6 µM
  Logτ: -0.43 ± 0.07
  pKB: 4.90 ± 0.12
  τ: 0.37
[3]; with DA
  Logαβ: 1.54 ± 0.10
  αβ: 34.7
[4]
  Kb: 2.6 µM
  Logτ: -0.23 ± 0.08
  pKB: 5.59 ± 0.21
  τ: 0.59
[4]; with DA
  Logαβ: 0.93 ± 0.18
  αβ: 8.5
[5]; shift of DA IC50
  fold shift + 10 μM PAM: 1.5 fold
[5]; shift of DA pIC50
  ΔpIC50 + 10 μM PAM: 0.17 ± 0.09
[6]; shift of DA IC50
  fold shift + 10 μM PAM: 2.6 fold
[6]; shift of DA pIC50
  ΔpIC50 + 10 μM PAM: 0.41 ± 0.18
[7]; shift of DA IC50
  fold shift + 10 μM PAM: 2 fold
[7]; shift of DA pIC50
  ΔpIC50 + 10 μM PAM: 0.31 ± 0.10
[8]
  D2 PAM2 log τ: 0.06 ± 0.05
  D2 PAM2 pKB: 5.02 ± 0.14
  D2 PAM2 τ: 1
[8]; S13
  Logτ: 0.14 ± 0.10
  pKB: 4.93 ± 0.22
  τ: 1.38
[8]; S13, read-out: KB
  Kb: 11.7 µM
[8]; S13, with DA
  Logαβ: 1.60 ± 0.25
  αβ: 39.8
[8]; Table 2, read-out: D2 PAM2 KB (converted)
  Kb: 9.5 µM
[8]; with DA
  D2 PAM2 log αβ: 1.25 ± 0.14
  D2 PAM2 αβ: 18
[9]
  D2 PAM2 log τ: –1.06 ± 0.21
  D2 PAM2 pKB: 5.13 ± 0.16
  D2 PAM2 τ: 0.09
[9]; [13]
  Kb: 7.4 µM
[9]; with DA
  D2 PAM2 log αβ: 1.06 ± 0.21
  D2 PAM2 αβ: 11
[10]
  D2 PAM2 log τ: –3
  D2 PAM2 pKB: 4.90 ± 0.18
[10]; [13]
  Kb: 13 µM
[10]; with DA
  D2 PAM2 log αβ: 1.63 ± 0.17
  D2 PAM2 αβ: 43
[11]
  pKB: 5.30 ± 0.29
[11]; intrinsic efficacy
  LogτB: -2.20 ± 0.23
[11]; with dopamine
  Logαβ: 0.99 ± 0.21
[12]
  effect on L-DOPA in a rodent model of Parkinson's disease: potentiate a subeffective dose of L-DOPA

— article PMC12186844 (ACS Chemical Neuroscience, 2025)
